Assay results: patent US7943770B2, “Fused quinoline derivative and use thereof” (Takeda Pharmaceutical Company Limited, priority 2004, dated 2011)
Counter-ions that a name gives are not always drawn.

Molecular target: T1, hNK2 receptor (Homo sapiens, UniProt P21452)
T1 construct: host or cells: CHO cells
T1 sequence (P21452 1-398): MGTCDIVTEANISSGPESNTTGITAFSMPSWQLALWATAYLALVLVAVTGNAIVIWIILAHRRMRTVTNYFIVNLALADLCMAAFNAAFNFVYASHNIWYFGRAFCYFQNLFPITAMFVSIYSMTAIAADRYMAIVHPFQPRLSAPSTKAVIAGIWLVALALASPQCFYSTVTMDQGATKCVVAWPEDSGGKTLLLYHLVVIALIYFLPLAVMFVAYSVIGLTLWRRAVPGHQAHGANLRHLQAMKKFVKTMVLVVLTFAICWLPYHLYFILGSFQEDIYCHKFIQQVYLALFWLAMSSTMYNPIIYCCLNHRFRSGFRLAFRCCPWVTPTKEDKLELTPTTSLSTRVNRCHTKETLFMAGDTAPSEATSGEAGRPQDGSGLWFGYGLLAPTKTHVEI
Assay: Radio-ligand ([125I]-NKA) receptor binding inhibitory activity using membrane fraction of hNK2 receptor-expressing CHO cell
Details: membrane fraction of hNK2 receptor-expressing CHO cells, 25° C., 30 min
Procedure: hNK2 receptor-expressing CHO cells (produced by EUROSCREEN) were cultured in HAM-F12 medium containing 400 μg/ml Geneticin, 100 U/mL penicillin, 100 μg/mL streptomycin and 10% inactivated serum. The medium was removed and adhered cells were washed with PBS, and PBS containing 5 mM EDTA was added to detach the cells from the flask. The cells were recovered by centrifugation, suspended in suspending buffer A (15 mM Tris-HCl (pH 7.5), 2 mM MgCl2, 0.3 mM EDTA, 1 mM EGTA), disrupted by POLYTRON homogenizer (manufactured by KINEMATICA) and centrifuged at 800×g for 10 min. The supernatant was recovered and ultracentrifuged at 100000×g for 25 min. The precipitated fraction was suspended in suspending buffer B (7.5 mM Tris-HCl (pH 7.5), 12.5 mM MgCl2, 0.3 mM EDTA, 1 mM, […], 250 mM Sucrose) and cryopreserved (at −80° C.) as a receptor specimen.
An assay buffer (50 μl, 50 mM Tris-HCl (pH 7.4), 0.02% bovine serum albumin, 2 μg/mL chymostatin, 40 μg/mL bacitracin, 40 μg/mL APMSF, 3 mM MnCl2) was added to a 96 well microassay plate. Thereto was added a 20 μg/mL membrane specimen suspended in the assay buffer (50 μL). An assay buffer (50 μL) containing 2% dimethyl sulfoxide was added to examine the total binding, 4 unlabeled NKA (produced by Peptide Institute, Inc.) solution (50 μL) diluted with an assay buffer containing 2% dimethyl sulfoxide was added to examine non-specific binding, and a test compound diluted with an assay buffer (50 containing 2% dimethyl sulfoxide) was added to examine the binding inhibitory activity of the test compound. Furthermore, […] [^125I]-NKA (produced by Amersham Biosciences) solution (50 μL) was added to each well.
After reaction at 25° C. for 30 min., the reaction was stopped by rapid filtration on a unifilter plate (GF/C) (manufactured by PerkinElmer) using a cell harvester (manufactured by PerkinElmer) and the cells were washed 5 times with 50 mM Tris-HCl (pH 7.4) buffer containing 0.02% bovine serum albumin (250 μL). The GF/C filter plate was dried and 20 μl, of MicroScinti-O (manufactured by PerkinElmer) was added and the radioactivity was measured in Topcount (manufactured by PerkinElmer). The GF/C filter plate, which had been immersed in 0.3% polyethyleneimine for one day, was used. Specific binding is shown by the value obtained by subtracting non-specific binding from the total binding. The binding inhibitory activity of the test compound is shown by the ratio of the value obtained by subtracting the measured value associated with the addition of the test compound from the total binding, to the value of the specific binding.

| IC50 | Compound |
| --- | --- |
| < 0.01 µM | O=C(N[C@@H]1CCCC[C@@H]1C(=O)N1CC[C@@H]2[C@H](c3ccccc3)Nc3ccccc3[C@@H]21)c1ccccc1 (relative stereo) [Example 1, N-((1R,2S)-2-{[(3aR*,4R*,9bR*)-4-Phenyl-2,3,3a,4,5,9b-hexahydro-1H-pyrrolo[3,2-c]quinolin-1-yl]carbonyl}cyclohexyl)benzamide] |
| < 0.01 µM | O=C(N[C@@H]1CCCC[C@@H]1C(=O)N1CC[C@@H]2[C@H](c3ccccc3)Nc3cc(F)ccc3[C@@H]21)c1ccccc1 (relative stereo) [Example 6, N-((1R,2S)-2-{[(3aR*,4R*,9bR*)-7-Fluoro-4-phenyl-2,3,3a,4,5,9b-hexahydro-1H-pyrrolo[3,2-c]quinolin-1-yl]carbonyl}cyclohexyl)benzamide] |
| < 0.01 µM | O=C(N[C@@H]1CCCC[C@@H]1C(=O)N1CC[C@@H]2[C@H](c3ccccc3)Nc3cc(Cl)ccc3[C@@H]21)c1ccccc1 (relative stereo) [Example 7, N-((1R,2S)-2-{[(3aR*,4R*,9bR*)-7-Chloro-4-phenyl-2,3,3a,4,5,9b-hexahydro-1H-pyrrolo[3,2-c]quinolin-1-yl]carbonyl}cyclohexyl)benzamide] |
| < 0.01 µM | O=C(N[C@@H]1CCCC[C@@H]1C(=O)N1CC[C@@H]2[C@H](c3ccccc3)Nc3c(F)cccc3[C@@H]21)c1ccccc1 (relative stereo) [Example 8, N-((1R,2S)-2-{[(3aR*,4R*,9bR*)-6-Fluoro-4-phenyl-2,3,3a,4,5,9b-hexahydro-1H-pyrrolo[3,2-c]quinolin-1-yl]carbonyl}cyclohexyl)benzamide] |
| < 0.01 µM | O=C(N[C@@H]1CCCC[C@@H]1C(=O)N1CC[C@@H]2[C@H](c3ccc(F)cc3)Nc3ccccc3[C@@H]21)c1ccccc1 (relative stereo) [Example 9, N-((1R,2S)-2-{[(3aR*,4R*,9bR*)-4-(4-Fluorophenyl)-2,3,3a,4,5,9b-hexahydro-1H-pyrrolo[3,2-c]quinolin-1-yl]carbonyl}cyclohexyl)benzamide] |
| < 0.01 µM | O=C(N[C@@H]1CCCC[C@@H]1C(=O)N1CC[C@@H]2[C@H](c3ccco3)Nc3ccccc3[C@@H]21)c1ccccc1 (relative stereo) [Example 15, N-((1R,2S)-2-{[(3aR*,4R*,9bR*)-4-(2-Furyl)-2,3,3a,4,5,9b-hexahydro-1H-pyrrolo[3,2-c]quinolin-1-yl]carbonyl}cyclohexyl)benzamide] |
| < 0.001 µM | O=C(N[C@@H]1CCCC[C@@H]1C(=O)N1CC[C@@H]2[C@H](c3ccoc3)Nc3ccccc3[C@@H]21)c1ccccc1 (relative stereo) [Example 16, N-((1R,2S)-2-{[(3aR*,4R*,9bR*)-4-(3-Furyl)-2,3,3a,4,5,9b-hexahydro-1H-pyrrolo[3,2-c]quinolin-1-yl]carbonyl}cyclohexyl)benzamide] |
| < 0.01 µM | O=C(N[C@@H]1CCCC[C@@H]1C(=O)N1CC[C@@H]2[C@H](c3cccs3)Nc3ccccc3[C@@H]21)c1ccccc1 (relative stereo) [Example 17, N-((1R,2S)-2-{[(3aR*,4R*,9bR*)-4-(2-Thienyl)-2,3,3a,4,5,9b-hexahydro-1H-pyrrolo[3,2-c]quinolin-1-yl]carbonyl}cyclohexyl)benzamide] |
| < 0.001 µM | O=C(N[C@@H]1CCCC[C@@H]1C(=O)N1CC[C@H]2[C@@H](c3ccsc3)Nc3ccccc3[C@H]21)c1ccccc1 (relative stereo) [Example 18, N-((1R,2S)-2-{[(3aS*,4S*,9bS*)-4-(3-Thienyl)-2,3,3a,4,5,9b-hexahydro-1H-pyrrolo[3,2-c]quinolin-1-yl]carbonyl}cyclohexyl)benzamide] |
| < 0.01 µM | O=C(N[C@@H]1CCCC[C@@H]1C(=O)N1CC[C@@H]2[C@H](c3ccccn3)Nc3ccccc3[C@@H]21)c1ccccc1 (relative stereo) [Example 19, N-((1R,2S)-2-{[(3aR*,4R*,9bR*)-4-Pyridin-2-yl-2,3,3a,4,5,9b-hexahydro-1H-pyrrolo[3,2-c]quinolin-1-yl]carbonyl}cyclohexyl)benzamide] |
| < 0.01 µM | O=C(N[C@@H]1CCCC[C@@H]1C(=O)N1CC[C@@H]2[C@H](c3cccnc3)Nc3ccccc3[C@@H]21)c1ccccc1 (relative stereo) [Example 20, N-((1R,2S)-2-{[(3aR*,4R*,9bR*)-4-Pyridin-3-yl-2,3,3a,4,5,9b-hexahydro-1H-pyrrolo[3,2-c]quinolin-1-yl]carbonyl}cyclohexyl)benzamide] |
| < 0.01 µM | Cn1cccc1[C@@H]1Nc2ccccc2[C@H]2[C@@H]1CCN2C(=O)[C@H]1CCCC[C@H]1NC(=O)c1ccccc1 (relative stereo) [Example 23, N-((1R,2S)-2-{[(3aR*,4R*,9bR*)-4-(1-Methyl-1H-pyrrol-2-yl)-2,3,3a,4,5,9b-hexahydro-1H-pyrrolo[3,2-c]quinolin-1-yl]carbonyl}cyclohexyl)benzamide] |
| < 0.01 µM | O=C(N[C@@H]1CCCC[C@@H]1C(=O)N1CC[C@@H]2[C@H](c3nccs3)Nc3ccccc3[C@@H]21)c1ccccc1 (relative stereo) [Example 25, N-((1R,2S)-2-{[(3aR*,4R*,9bR*)-4-(1,3-Thiazol-2-yl)-2,3,3a,4,5,9b-hexahydro-1H-pyrrolo[3,2-c]quinolin-1-yl]carbonyl}cyclohexyl)benzamide] |
| < 0.01 µM | CCC[C@@H]1Nc2ccccc2[C@H]2[C@@H]1CCN2C(=O)[C@H]1CCCC[C@H]1NC(=O)c1ccccc1 (relative stereo) [Example 27, N-((1R,2S)-2-{[(3aR*,4S*,9bR*)-4-Propyl-2,3,3a,4,5,9b-hexahydro-1H-pyrrolo[3,2-c]quinolin-1-yl]carbonyl}cyclohexyl)benzamide] |
| < 0.01 µM | CC(C)[C@@H]1Nc2ccccc2[C@H]2[C@@H]1CCN2C(=O)[C@H]1CCCC[C@H]1NC(=O)c1ccccc1 (relative stereo) [Example 28, N-((1R,2S)-2-[(3aR*,4S*, 9bR*)-4-Isopropyl-2,3,3a,4,5,9b-hexahydro-1H-pyrrolo[3,2-c]quinolin-1-yl]carbonyl)cyclohexyl)benzamide] |
| < 0.01 µM | O=C(N[C@@H]1CCCC[C@@H]1C(=O)N1CC[C@@H]2[C@H](C3CC3)Nc3ccccc3[C@@H]21)c1ccccc1 (relative stereo) [Example 29, N-((1R,2S)-2-{[(3aR*,4S*,9bR*)-4-Cyclopropyl-2,3,3a,4,5,9b-hexahydro-1H-pyrrolo[3,2-c]quinolin-1-yl]carbonyl}cyclohexyl)benzamide] |
| < 0.01 µM | COC[C@@H]1Nc2ccccc2[C@H]2[C@@H]1CCN2C(=O)[C@H]1CCCC[C@H]1NC(=O)c1ccccc1 (relative stereo) [Example 51, N-((1R,2S)-2-{[(3aR*,4R*,9bR*)-4-(Methoxymethyl)-2,3,3a,4,5,9b-hexahydro-1H-pyrrolo[3,2-c]quinolin-1-yl]carbonyl}cyclohexyl)benzamide] |
| < 0.01 µM | O=C(N[C@@H]1CCCC[C@@H]1C(=O)N1CC[C@@H]2[C@H](c3cc[nH]c3)Nc3ccccc3[C@@H]21)c1ccccc1 (relative stereo) [Example 52, N-((1R,2S)-2-{[(3aR*,4R*,9bR*)-4-(1H-Pyrrol-3-yl)-2,3,3a,4,5,9b-hexahydro-1H-pyrrolo[3,2-c]quinolin-1-yl]carbonyl}cyclohexyl)benzamide] |
| < 0.01 µM | CNC[C@@H]1Nc2ccccc2[C@H]2[C@@H]1CCN2C(=O)[C@H]1CCCC[C@H]1NC(=O)c1ccccc1 (relative stereo) [Example 53, N-[(1R,2S)-2-({(3aR*,4R*,9bR*)-4-[(Methylamino)methyl]-2,3,3a,4,5,9b-hexahydro-1H-pyrrolo[3,2-c]quinolin-1-yl}carbonyl)cyclohexyl]benzamide dihydrochloride] |
| < 0.001 µM | O=C(N[C@@H]1CCCC[C@@H]1C(=O)N1CC[C@@H]2[C@H](c3ncc[nH]3)Nc3ccccc3[C@@H]21)c1ccccc1 (relative stereo) [Example 54, N-((1R,2S)-2-{[(3aR*,4R*,9bR*)-4-(1H-Imidazol-2-yl)-2,3,3a,4,5,9b-hexahydro-1H-pyrrolo[3,2-c]quinolin-1-yl]carbonyl}cyclohexyl)benzamide] |
